Assay results: ChEMBL document CHEMBL3044841, “Synthesis and biological activities of Schiff bases of gabapentin with different aldehydes and ketones: a structureactivity relationship study” (Med Chem Res, 2012); call rule not given here
In brackets after ≈: the same amount, converted by molar mass.

What was measured:
[1] = test system: Radical scavenging activity; assay: Antioxidant activity assessed as DPPH free radical scavenging activity at 150 ug/ml after 30 min relative to control; type: functional
[2] = test system: Radical scavenging activity; assay: Antioxidant activity assessed as DPPH free radical scavenging activity after 30 min; type: functional
[3] = test system: Radical scavenging activity; assay: Antioxidant activity assessed as DPPH free radical scavenging activity at 200 ug/ml after 30 min relative to control; type: functional
[4] = test system: Rattus norvegicus; assay: Neurotoxicity in Rattus norvegicus Wistar (rat) assessed as minimal motor impairment at 100 mg/kg, po after 2 hr by rotorod test relative to control; type: toxicity, organism-based; design: dose 100 mg/kg, route oral; details: in vivo
[5] = test system: Rattus norvegicus; assay: Neurotoxicity in Rattus norvegicus Wistar (rat) assessed as minimal motor impairment at 100 mg/kg, po after 1 hr by rotorod test; type: toxicity, organism-based; design: dose 100 mg/kg, route oral; details: in vivo
[6] = test system: Rattus norvegicus; assay: Neurotoxicity in Rattus norvegicus Wistar (rat) assessed as minimal motor impairment at 100 mg/kg, po after 0.5 hr by rotorod test; type: toxicity, organism-based; design: dose 100 mg/kg, route oral; details: in vivo
[7] = test system: Rattus norvegicus; assay: Anticonvulsant activity in Rattus norvegicus Wistar (rat) assessed as protection against maximal electroshock-induced seizure at 100 mg/kg, po administered 30 min before electroshock measured for 2 min relative to control; type: functional
[8] = test system: Radical scavenging activity; assay: Antioxidant activity assessed as DPPH free radical scavenging activity at 100 ug/ml after 30 min relative to control; type: functional
[9] = test system: Rattus norvegicus; assay: Neurotoxicity in Rattus norvegicus Wistar (rat) assessed as minimal motor impairment at 100 mg/kg, po after 2 hr by rotorod test; type: toxicity, organism-based; design: dose 100 mg/kg, route oral; details: in vivo
[10] = test system: Rattus norvegicus; assay: Neurotoxicity in Rattus norvegicus Wistar (rat) assessed as minimal motor impairment at 100 mg/kg, po after 4 hr by rotorod test; type: toxicity, organism-based; design: dose 100 mg/kg, route oral; details: in vivo

SMILES | Activity [1] | IC50 [2] | Activity [3] | Activity [4] | Activity [5] | Activity [6] | Activity [7] | Activity [8] | Activity [9] | Activity [10]
C/C(=N\CC1(CC(=O)O)CCCCC1)c1cccc(C#N)c1 | 41% | Not Active | 49.8% | 25% | Non-toxic | Non-toxic | 6.36% | 30.6% | – | –
C/C=N/CC1(CC(=O)O)CCCCC1 | 41% | Not Active | 49.5% | – | – | – | – | 31.4% | – | –
O=C1NC(=O)C(c2ccccc2)(c2ccccc2)N1 [PHENYTOIN] | – | – | – | – | – | Non-toxic | 79.29% | – | – | –
C=NCC1(CC(=O)O)CCCCC1 | 40.6% | Not Active | 48.9% | – | – | – | – | 30.2% | – | –
O=C(O)CC1(C/N=C/c2ccccc2)CCCCC1 | 41.3% | Not Active | 49.8% | – | – | – | – | 30.1% | – | –
O=C(O)CC1(C/N=C/c2ccccc2Cl)CCCCC1 | 56.7% | 119.4 µg/mL (≈ 406 µM) | 66.4% | – | – | – | – | 45.1% | – | –
O=C(O)CC1(C/N=C/c2ccc(F)cc2)CCCCC1 | 53.8% | 130.5 µg/mL (≈ 471 µM) | 62.8% | – | – | – | – | 44.7% | – | –
CCOc1ccc(/C(C)=N/CC2(CC(=O)O)CCCCC2)cc1 | 66.7% | 60.3 µg/mL (≈ 190 µM) | 74.6% | 25% | Non-toxic | Non-toxic | 12.74% | 55.8% | – | –
O=C(O)CC1(C/N=C/c2ccccc2O)CCCCC1 | 60.6% | 80.5 µg/mL (≈ 292 µM) | 71.3% | – | – | – | – | 51% | – | –
C/C(=N\CC1(CC(=O)O)CCCCC1)c1c[nH]c2ccccc12 | 43.8% | 175 µg/mL (≈ 560 µM) | 55.8% | 25% | Non-toxic | Non-toxic | 24.63% | 32.7% | Non-toxic | –
C/C(=N\CC1(CC(=O)O)CCCCC1)c1cccnc1 | 42.1% | 198.2 µg/mL (≈ 722 µM) | 51% | – | Non-toxic | Non-toxic | 65.61% | 30.8% | Non-toxic | Non-toxic
COc1cc(/C=N/CC2(CC(=O)O)CCCCC2)ccc1O | 64.9% | 59.6 µg/mL (≈ 195 µM) | 78.2% | – | – | – | – | 57.2% | – | –
C/C(=N\CC1(CC(=O)O)CCCCC1)c1ccccn1 | 42.5% | 194.8 µg/mL (≈ 710 µM) | 51.6% | – | Non-toxic | Non-toxic | 66.45% | 31.1% | Non-toxic | Non-toxic
CCOc1ccc(/C=N/CC2(CC(=O)O)CCCCC2)cc1 | 66.4% | 60.5 µg/mL (≈ 199 µM) | 74.5% | – | – | – | – | 55.6% | – | –
O=C(O)CC1(C/N=C/c2c(F)cccc2Cl)CCCCC1 | 58% | 104 µg/mL (≈ 334 µM) | 69.1% | – | – | – | – | 47.2% | – | –
O=C(O)CC1(C/N=C/c2ccccn2)CCCCC1 | 50.3% | 151.2 µg/mL (≈ 581 µM) | 59.7% | – | – | – | – | 40% | – | –
COc1ccc(/C=N/CC2(CC(=O)O)CCCCC2)cc1 | 59.8% | 94.2 µg/mL (≈ 326 µM) | 69.5% | – | – | – | – | 49.6% | – | –
O=C1O[C@H]([C@@H](O)CO)C(O)=C1O [ASCORBIC ACID] | 86.4% | 8.6 µg/mL (≈ 48.8 µM) | 99.3% | – | – | – | – | 74.1% | – | –
C/C(=N\CC1(CC(=O)O)CCCCC1)c1ccc2ccccc2c1 | 37.2% | Not Active | 48.4% | 25% | Non-toxic | Non-toxic | 0.42% | 28.5% | – | –
